Test results reported in ChEMBL document CHEMBL1201862, “PubChem BioAssay data set” (2004).
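Test compounds were applied to cells in 96-well plates for 48 hours at 5 doses. GI50 = concentration required for 50% inhibition of growth.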 Calls of active or inactive are those of the source. Cut-off read from the data, not from the text of the source: active = GI50 up to about 1.1 µM and inactive = higher.

Key:
Assay in all cases: NCI anticancer screen, dose series, 48 h
[1] = system: 786-0
[2] = system: A549
[3] = system: ACHN
[4] = system: BT-549
[5] = system: CAKI-1
[6] = system: CCRF-CEM
[7] = system: COLO 205
[8] = system: DU-145
[9] = system: EKVX
[10] = system: HCT-116
[11] = system: HCT-15
[12] = system: HL-60
[13] = system: HOP-62
[14] = system: HOP-92
[15] = system: HT-29
[16] = system: Hs-578T
[17] = system: IGROV-1
[18] = system: K562
[19] = system: KM12
[20] = system: LOX IMVI
[21] = system: M14
[22] = system: MCF7
[23] = system: MDA-MB-435
[24] = system: MDA-N
[25] = system: MOLT-4
[26] = system: Malme-3M
[27] = system: NCI-H226
[28] = system: NCI-H23
[29] = system: NCI-H460
[30] = system: NCI-H522
[31] = system: NCI/ADR-RES
[32] = system: OVCAR-3
[33] = system: OVCAR-4
[34] = system: OVCAR-5
[35] = system: OVCAR-8
[36] = system: PC-3
[37] = system: RPMI-8226
[38] = system: SF-268
[39] = system: SF-295
[40] = system: SK-MEL-28
[41] = system: SK-MEL-2
[42] = system: SK-MEL-5
[43] = system: SK-OV-3
[44] = system: SN12C
[45] = system: SNB-19
[46] = system: SNB-75
[47] = system: SR
[48] = system: SW-620
[49] = system: T47D
[50] = system: TK-10
[51] = system: U-251
[52] = system: UACC-257
[53] = system: UACC-62
[54] = system: UO-31
[55] = system: A498
[56] = system: MDA-MB-231
[57] = system: RXF 393
[58] = system: SF-539
[59] = system: HCC 2998

## Cc1cn(C2CC(OC(=O)c3ccc(Cl)cc3)C(COC(=O)c3ccc(Cl)cc3)O2)c(=O)[nH]c1=O (centres undefined)
[1]
  GI50: > 100 µM (inactive)
[2]
  GI50: > 100 µM (inactive)
[3]
  GI50: > 100 µM (inactive)
[4]
  GI50: > 100 µM (inactive)
[5]
  GI50: > 100 µM (inactive)
[6]
  GI50: > 100 µM (inactive)
[7]
  GI50: > 100 µM (inactive)
[8]
  GI50: > 100 µM (inactive)
[9]
  GI50: > 100 µM (inactive)
[10]
  GI50: > 100 µM (inactive)
[11]
  GI50: > 100 µM
[12]
  GI50: > 100 µM (inactive)
[13]
  GI50: > 100 µM (inactive)
[14]
  GI50: > 100 µM (inactive)
[15]
  GI50: > 100 µM (inactive)
[16]
  GI50: > 100 µM (inactive)
[17]
  GI50: > 100 µM (inactive)
[18]
  GI50: > 100 µM (inactive)
[19]
  GI50: > 100 µM (inactive)
[20]
  GI50: > 100 µM (inactive)
[21]
  GI50: > 100 µM (inactive)
[22]
  GI50: > 100 µM (inactive)
[23]
  GI50: > 100 µM (inactive)
[24]
  GI50: > 100 µM (inactive)
[25]
  GI50: > 100 µM (inactive)
[26]
  GI50: > 100 µM (inactive)
[27]
  GI50: > 100 µM (inactive)
[28]
  GI50: > 100 µM (inactive)
[29]
  GI50: > 100 µM (inactive)
[30]
  GI50: > 100 µM (inactive)
[31]
  GI50: > 100 µM (inactive)
[32]
  GI50: > 100 µM (inactive)
[33]
  GI50: > 100 µM (inactive)
[34]
  GI50: > 100 µM (inactive)
[35]
  GI50: > 100 µM (inactive)
[36]
  GI50: > 100 µM (inactive)
[37]
  GI50: > 100 µM (inactive)
[38]
  GI50: > 100 µM (inactive)
[39]
  GI50: > 100 µM (inactive)
[40]
  GI50: > 100 µM (inactive)
[41]
  GI50: > 100 µM (inactive)
[42]
  GI50: > 100 µM (inactive)
[43]
  GI50: > 100 µM (inactive)
[44]
  GI50: > 100 µM (inactive)
[45]
  GI50: > 100 µM (inactive)
[46]
  GI50: > 100 µM (inactive)
[47]
  GI50: > 100 µM (inactive)
[48]
  GI50: > 100 µM (inactive)
[49]
  GI50: > 100 µM (inactive)
[50]
  GI50: > 100 µM (inactive)
[51]
  GI50: > 100 µM (inactive)
[52]
  GI50: > 100 µM (inactive)
[53]
  GI50: > 100 µM (inactive)
[54]
  GI50: > 100 µM (inactive)

## Cc1ccc(-c2sc(-c3ccc(C)cc3)c3c2C2CCC3C2)cc1
[1]
  GI50: > 50 µM (inactive)
[55]
  GI50: > 50 µM (inactive)
[2]
  GI50: > 50 µM (inactive)
[3]
  GI50: > 50 µM (inactive)
[4]
  GI50: > 50 µM (inactive)
[5]
  GI50: > 50 µM (inactive)
[6]
  GI50: > 50 µM (inactive)
[7]
  GI50: > 50 µM (inactive)
[8]
  GI50: > 50 µM (inactive)
[9]
  GI50: > 50 µM (inactive)
[10]
  GI50: > 50 µM (inactive)
[11]
  GI50: > 50 µM
[12]
  GI50: > 50 µM (inactive)
[13]
  GI50: > 50 µM (inactive)
[14]
  GI50: > 50 µM (inactive)
[15]
  GI50: > 50 µM (inactive)
[16]
  GI50: > 50 µM (inactive)
[17]
  GI50: > 50 µM (inactive)
[18]
  GI50: > 50 µM (inactive)
[19]
  GI50: > 50 µM (inactive)
[20]
  GI50: > 50 µM (inactive)
[21]
  GI50: > 50 µM (inactive)
[56]
  GI50: > 50 µM (inactive)
[23]
  GI50: > 50 µM (inactive)
[24]
  GI50: > 50 µM (inactive)
[25]
  GI50: > 50 µM (inactive)
[26]
  GI50: > 50 µM (inactive)
[27]
  GI50: > 50 µM (inactive)
[28]
  GI50: > 50 µM (inactive)
[29]
  GI50: > 50 µM (inactive)
[30]
  GI50: > 50 µM (inactive)
[31]
  GI50: > 50 µM (inactive)
[32]
  GI50: > 50 µM (inactive)
[33]
  GI50: > 50 µM (inactive)
[34]
  GI50: > 50 µM (inactive)
[35]
  GI50: > 50 µM (inactive)
[36]
  GI50: > 50 µM (inactive)
[37]
  GI50: > 50 µM (inactive)
[57]
  GI50: > 50 µM (inactive)
[38]
  GI50: > 50 µM (inactive)
[39]
  GI50: > 50 µM (inactive)
[58]
  GI50: > 50 µM (inactive)
[40]
  GI50: > 50 µM (inactive)
[41]
  GI50: > 50 µM (inactive)
[42]
  GI50: > 50 µM (inactive)
[43]
  GI50: > 50 µM (inactive)
[44]
  GI50: > 50 µM (inactive)
[45]
  GI50: > 50 µM (inactive)
[47]
  GI50: > 50 µM (inactive)
[48]
  GI50: > 50 µM (inactive)
[49]
  GI50: > 50 µM (inactive)
[50]
  GI50: > 50 µM (inactive)
[51]
  GI50: > 50 µM (inactive)
[52]
  GI50: > 50 µM (inactive)
[53]
  GI50: > 50 µM (inactive)
[54]
  GI50: > 50 µM (inactive)

## CCCCCCCC(=O)NC(C)(C)C(=O)NCC(=O)NC(CC(C)C)C(=O)NC(C)(C)C(=O)NCC(=O)NCC(=O)NC(CC(C)C)C(=O)NC(C)(C)C(=O)NCC(=O)NC(C(=O)NC(CO)CC(C)C)C(C)CC (centres undefined)
[1]
  GI50: 4.61 µM (inactive)
[2]
  GI50: 4.36 µM (inactive)
[3]
  GI50: 5 µM (inactive)
[4]
  GI50: 3.59 µM (inactive)
[5]
  GI50: 4.12 µM (inactive)
[6]
  GI50: 4.26 µM (inactive)
[7]
  GI50: 3.81 µM (inactive)
[8]
  GI50: 4.55 µM (inactive)
[9]
  GI50: 3.63 µM (inactive)
[59]
  GI50: 4.29 µM (inactive)
[10]
  GI50: 3.78 µM (inactive)
[11]
  GI50: 4.86 µM
[13]
  GI50: 4.28 µM (inactive)
[14]
  GI50: 3.15 µM (inactive)
[15]
  GI50: 4.05 µM (inactive)
[16]
  GI50: 4.42 µM (inactive)
[17]
  GI50: 3.84 µM (inactive)
[18]
  GI50: 3.21 µM (inactive)
[19]
  GI50: 1.41 µM (inactive)
[20]
  GI50: 3.53 µM (inactive)
[21]
  GI50: 4.21 µM (inactive)
[56]
  GI50: 4 µM (inactive)
[23]
  GI50: 3.94 µM (inactive)
[24]
  GI50: 4 µM (inactive)
[25]
  GI50: 3.73 µM (inactive)
[26]
  GI50: 4.82 µM (inactive)
[27]
  GI50: 4.5 µM (inactive)
[28]
  GI50: 3.93 µM (inactive)
[29]
  GI50: 4.48 µM (inactive)
[30]
  GI50: 3.87 µM (inactive)
[31]
  GI50: 4.83 µM (inactive)
[32]
  GI50: 3.11 µM (inactive)
[33]
  GI50: 4.01 µM (inactive)
[34]
  GI50: 3.66 µM (inactive)
[35]
  GI50: 4.21 µM (inactive)
[36]
  GI50: 3.77 µM (inactive)
[37]
  GI50: 0.935 µM (active)
[57]
  GI50: 4.05 µM (inactive)
[38]
  GI50: 4.11 µM (inactive)
[39]
  GI50: 4.26 µM (inactive)
[40]
  GI50: 3.72 µM (inactive)
[41]
  GI50: 2.82 µM (inactive)
[42]
  GI50: 3.85 µM (inactive)
[43]
  GI50: 4.2 µM (inactive)
[44]
  GI50: 4.28 µM (inactive)
[45]
  GI50: 3.57 µM (inactive)
[46]
  GI50: 3.64 µM (inactive)
[47]
  GI50: 3.99 µM (inactive)
[48]
  GI50: 4.02 µM (inactive)
[49]
  GI50: 3.14 µM (inactive)
[50]
  GI50: 4.66 µM (inactive)
[51]
  GI50: 2.39 µM (inactive)
[52]
  GI50: 4.41 µM (inactive)
[53]
  GI50: 4.14 µM (inactive)
[54]
  GI50: 4.3 µM (inactive)

## COc1c(OC(C)C)cc2cc(O)c(C(=O)NC3Cc4ccc(c(Cl)n4)O[C@@H]4C=C5C#C/C(=C\C#CC6OC56C4OC4CC(C)(O)C(O)C(C)O4)C(OC4CC(O)C(N(C)C)C(C)O4)COC3=O)cc2c1OC (some centres undefined)
[55]
  GI50: > 36.3 µM (inactive)
[4]
  GI50: > 36.3 µM (inactive)
[5]
  GI50: 10.9 µM (inactive)
[8]
  GI50: 11.5 µM (inactive)
[59]
  GI50: > 36.3 µM (inactive)
[14]
  GI50: > 36.3 µM (inactive)
[16]
  GI50: > 36.3 µM (inactive)
[22]
  GI50: 2.64 µM (inactive)
[23]
  GI50: > 36.3 µM (inactive)
[24]
  GI50: > 36.3 µM (inactive)
[26]
  GI50: > 36.3 µM (inactive)
[27]
  GI50: > 36.3 µM (inactive)
[31]
  GI50: > 36.3 µM (inactive)
[36]
  GI50: 35.8 µM (inactive)
[57]
  GI50: > 36.3 µM (inactive)
[40]
  GI50: > 36.3 µM (inactive)
[41]
  GI50: > 36.3 µM (inactive)
[46]
  GI50: > 36.3 µM (inactive)
[49]
  GI50: > 36.3 µM (inactive)
